Experimental findings from patent US12629364B2, “Methods of treating cancers overexpressing CARM1 with EZH2 inhibitors and platinum-based antineoplastic drugs” (The Wistar Institute of Anatomy and Biology, priority 2016, dated 2026) are described below.

For test [1], the system named is A1847 parental and CARM1 knockout cells. In words: Epigenetic targeting small molecule set screen (14-day colony formation). It is filed as cell-based, Human. Particulars: A1847 parental vs CARM1 knockout; 14 days; normalized to vehicle. As for the experimental part:
FIG. 26 illustrates that CARM1-expressing cells are selectively sensitized to EZH2 inhibitors. Equal number of parental control or CARM1 knockout […] cells were plated and treated with each of the 23 individual epigenetic inhibitors for 14 days. The media with the inhibitors was refreshed every 3 days. Cell growth was quantified as integrated density using NIH Image J software. Quantification of the average integrated density graphed as a scatter plot. The X-axis indicates the relative growth of treated CARM1 high parental […] cells compared with DMSO vehicle controls. Y-axis indicates the relative growth of treated CARM1 knockout […] cells compared with DMSO vehicle controls. n=4; and error bars represents SEM. FIG. 27 illustrates a table of EZH2 inhibitors that are selective against CARM1 expression. CARM1-high parental controls and CARM1 knockout […] cells were treated with the indicated concentration of the small molecules in a 14-day colony formation assay. Integrated density for each well was calculated using NIH Image J software. The relative growth of the indicated cells was determined by normalizing to the vehicle control treated cells. n=4 and p-value was calculated using a two-tailed t-test. FIG. 28 illustrates representative images of colonies formed by the cells treated with the indicated inhibitors. GSK126 and UNC1999 representative positive hits from the screen. […] parental and CARM1 knockout cells were plated in 24-well plates and treated with 24 epigenetic compounds. Cell medium was changed every three days with appropriate drug doses for 14 days or until control wells became confluent. Colonies were washed twice with PBS and fixed with 10% methanol and 10% acetic acid in distilled water. Fixed colonies were stained with 0.005% crystal violet. Integrated density was measured using NIH ImageJ software as a surrogate for cell growth.

Test [2] concerns tumors formed by CARM1 knockout cells. In words: IHC and qRT-PCR of dissected CARM1 knockout tumors. Format: in vivo, NSG mice. As for the experimental part: FIGS. 82 to 84 illustrate immunohistochemical analysis for serial sections of tumors dissected from mice injected with CARM1 knockout A1847 cells. Serial sections of tumors dissected from the indicated treatment groups described in FIGS. 73 to 75 were subjected to immunohistochemical staining for H3K27Me3, E7H2, cleaved caspase 3, and Ki67 (FIG. 82). Scale bar=50 μm. Histological score (H-score) of the indicated proteins was calculated for 3 separate fields from 5 tumors from 5 individual mice from each of the indicated groups (FIG. 83). Expression of the indicated EZH2/BAF155 target genes was determined by qRT-PCR in the tumors dissected from the indicated treatment groups (FIG. 84).
(In general: In qPCR the cycle at which signal appears reflects the starting amount.)

Test [3] concerns parental and CARM1 knockout A1847 cells, OVCAR10 cells. In words: Apoptosis markers (Annexin V, cleaved caspase 3, cleaved PARP). It is filed as cell-based, Human. Particulars: 10 μM; 7 days; CARM1-dependent manner. As for the experimental part:
FIG. 37 illustrates control parental and CARM1 knockout A1847 cells were treated with 10 μM GSK126 or vehicle for 7 days. Percentage of Annexin V positive apoptotic cells was quantified. *p<0.001 and #p>0.05.
FIG. 38 illustrates levels of cleaved caspase 3 and cleaved PARP in control parental and CARM1 knockout A1847 cells treated with 10 μM GSK126 for 7 days. Expression of β-actin was used as a loading control.
FIG. 39A illustrates the expression of apoptosis markers cleaved in CARM1 high OVCAR10 cells as a result of treatment with GSK126. CARM1 high OVCAR10 cells were treated with 10 μM GSK 126 or vehicle control for 7 days. The expression of apoptosis markers cleaved caspase 3 and cleaved PARP were determined by immunoblot. Expression of β-actin was used as a loading control.
Phosphatidylserine externalization was detected using an Annexin V staining kit (Millipore) following the manufacturer's instructions. Annexin V-positive cells were detected using the Guava System and analyzed with the Guava Nexin software Module (Millipore).

For a further test, the system named is CARM1-expressing tumors. In words: IHC and qRT-PCR of dissected CARM1-expressing tumors. It is filed as in vivo, NSG mice. Particulars: IHC. As for the experimental part: FIG. 79 illustrates immunohistochemical analysis for serial sections of tumors dissected from the indicated treatment groups where the tumor sections were stained for H3K27Me3, EZH2, cleaved caspase 3, and Ki67. Scale bar=50 μm.
FIG. 80 illustrates histological scoring (H-score) of the indicated proteins that was calculated for 3 separate fields from 5 tumors from 5 individual mice from each of the indicated groups.
FIG. 81 illustrates the expression of the indicated EZH2/BAF155 target genes that was determined by qRT-PCR in the tumors dissected from the indicated treatment groups.

Test [4] relates to promoter regions of the human DAB2, DLC1, NOXA and TIMP3 genes. In words: ChIP-qPCR at target gene promoters. Format: cell-based. Particulars: A1847 cells. An excerpt:
FIGS. 58 to 61 illustrate the results of a ChIP analysis using anti-EZH2 (FIG. 58), anti-H3K27Me3 (FIG. 59), anti-BAF155 (FIG. 60), or anti-RNA Pol II (FIG. 61) antibodies. An isotype matched IgG was used as a negative control. ChIP products were subjected to qPCR analysis using primers specific for the promoter regions of the human DAB2, DLC1, and NOXA genes. Data is representative of three independent experiments. *p<0.001 compared with IgG controls and #p<0.001 compared with parental controls.
FIGS. 62 to 65 illustrate the results of a ChIP analysis in parental control and CARM1 knockout A1847 cells treated with 10 μM GSK 126 or vehicle controls. The cells were subjected to ChIP analysis using anti-EZH2 (FIG. 62), anti-H3K27Me3 (FIG. 63), anti-BAF155 (FIG. 64), or anti-RNA Pol II (FIG. 65) antibodies. An isotype-matched IgG was used as a negative control. ChIP products were subjected to qPCR analysis using primers specific for the promoter regions of the human TIMP3 genes. Mean of three independent experiments with SEM. *p<0.001 compared with controls.
ChIP was performed as described in Tu et al. Developmental Cell (2011) 21:1077-91. The following antibodies were used to perform ChIP: anti-H3K27Me3 (Cell Signaling, Cat. No: 9733), anti-BAF155 (Santa Cruz, Cat. No: sc-9746), anti-RNA polymerase II (Santa Cruz, Cat. No: sc-899) or anti-EZH2 (Cell Signaling, Cat. No: 5246). An isotype matched IgG was used as a negative control. ChIP DNA was analyzed by quantitative PCR against the promoter of the indicated genes using the following primers: DAB2 Forward: 5′-[…]-3′ (SEQ ID NO: 10) and DAB2 Reverse: 5′-[…]-3′ (SEQ ID NO: 11); DLC1 Forward: 5′-[…]-3′ (SEQ ID NO: 12) and DLC1 Reverse: 5′-[…]-3′ (SEQ ID NO: 13); NOXA Forward: 5′-[…]-3′ (SEQ ID NO: 14) and NOXA Reverse: 5′-[…]-3′ (SEQ ID NO: 15); TIMP3 Forward: 5′-[…]-3′ (SEQ ID NO: 16) and TIMP3 Reverse: 5′-[…]-3′ (SEQ ID NO: 17).

As for `CC[C@H](C)n1cc(C)c2c(C(=O)NCc3c(C)cc(C)[nH]c3=O)cc(-c3ccc(N4CCNCC4)nc3)cc21` [GSK126, (S)-1-(sec-butyl)-N-((4,6-dimethyl-2-oxo-1,2-dihydropyridin-3-yl)methyl)-3-methyl-6-(6-(piperazin-1-yl)pyridin-3-yl)-1H-indole-4-carboxamide], in test [1], the “selective growth suppression of CARM1-expressing versus CARM1 KO cells” value is given as “showed selectivity against CARM1-expressing cells”. In addition, in test [2] (IHC), the “expression of Ki67” value is “did not affect the expression of Ki67 and cleaved caspase 3”; the “expression of cleaved caspase 3” value was “did not affect the expression of Ki67 and cleaved caspase 3”. In addition, in test [2] (qRT-PCR), the “expression of EZH2/BAF155 target genes” value is recorded as “did not increase the expression”. Further, the markers of apoptosis entry in test [3] is “markers of apoptosis were induced”. For the same compound, in the test with CARM1-expressing tumors, the H3K27Me3 staining result is listed as “H3K27Me3 staining was decreased”. Moreover, in test [4] (10 μM), the “association of BAF155 and Pol II with the TIMP3 promoter” value is listed as “CARM1 KO but not EZH2 inhibitor GSK 126 treatment decreased the association”. Moreover, in test [4] (DAB2, DLC1, NOXA loci), the “EZH2's association with its target genes” value is “without affecting EZH2's association with its target genes” and the “H3K27Me3 occupancy of target genes” value is “decreased H3K27Me3 occupancy”.
